Entries after “also recorded” stand apart in the source; their conditions may differ. Where two headings read alike, the source gives them in different places.
Tests used:
[1] = test system: Caco-2; assay: WST-1 test, colon cancer cells; assay type: cell-based, human
Procedure: Hybrids 4–14 were tested as anticancer agents against four human cancer cell lines: colon cancer (Caco-2), glioblastoma (SNB-19), lung cancer (A549), ovarian cancer (SKOV-3), and normal human dermal fibroblasts (NHDFs).
(§1) Cell cultures were performed in 96-well plates (Nunc Thermo Fisher Scientific, Waltham, MA, USA). Cells were seeded at 5 × 10^4/well and incubated for 24 h (at 37 °C, 5% CO2, and constant humidity). The medium was replaced with fresh with the addition of test compounds at a concentration of 0.1–100 µg/mL of DMSO and incubated again for another 72 h. After this time, the WST-1 test (Roche Molecular Biochemicals, Mannheim, Germany) was performed to assess the metabolic activity of the cells. Absorbance was measured at λ = 450 nm using a UVM340 microplate reader (Biogenet, Józefów, Poland). Results are expressed as the mean value of at least three independent experiments performed in triplicate.

[2] = test system: SKOV-3; assay: WST-1 test, ovarian cancer cells; assay type: cell-based, human
Procedure: (§2) Hybrids 4–14 were tested as anticancer agents against four human cancer cell lines: colon cancer (Caco-2), glioblastoma (SNB-19), lung cancer (A549), ovarian cancer (SKOV-3), and normal human dermal fibroblasts (NHDFs). Cisplatin was used as the reference substance. The results are presented as the compound concentration of the compound (μM) that inhibits the growth of 50% of cancer cells compared to control cells (IC50). A negative value (Neg) means that the compound concentration of the tested hybrids was greater than 500 µM. […] It is generated only by a weak van der Waals interaction with Arg84. […] There is also a visible difference in activity depending on the type of group present on the triazole ring (substituent C in Figure 2). The results obtained indicate that hybrids containing aromatic systems as a C substituent in their structure, especially another quinoline molecule (compounds 9 and 10), have high activity.
as §1

[3] = test system: NHDF; assay: WST-1 test, normal human dermal fibroblasts; assay type: cell-based; settings: 72 h, WST-1, normal cells
Procedure: as §2, §1

[4] = test system: SNB-19; assay: WST-1 test, glioblastoma cells; assay type: cell-based, human
Procedure: as §2, §1

[5] = test system: A549; assay: WST-1 test, lung cancer cells; assay type: cell-based, human; settings: for IC50: read-out: IC50 A-549
Procedure: as §2, §1

Compound	IC50 ([1]; Homo sapiens, Caco-2, 72 h)	IC50 ([2]; Homo sapiens, SK-OV-3, 72 h)	IC50 ([4]; 72 h)	IC50 ([4]; Homo sapiens, SNB-19, 72 h)	melting point	IC50 ([5]; Homo sapiens, A549, 72 h)	IC50 A-549 ([5]; 72 h)	IC50 ([1]; 72 h)	IC50 ([3]; Homo sapiens, NHDF)	IC50 ([2]; 72 h)	IC50 [3]	IC50 ([5]; 72 h)	IC50 NHDF [3]
O=S(=O)(NCc1cn(Cc2ccccc2)nn1)c1cccc2cccnc12 [Compound 4a, 8-N-[(1-Benzyl-1H-1,2,3-triazol-4-yl)methyl]quinolinesulfonamide]	26.4 µM	> 500 µM		> 500 µM	125 to 126 °C	> 500 µM			> 500 µM				
N.N.[Cl][Pt][Cl] [Cisplatin, reference compound]			2.93 µM							41.6 µM	> 500 µM	453 µM	
CN(Cc1cn(-c2ccnc3c(Br)cccc23)nn1)S(=O)(=O)c1cccc2cccnc12 [Compound 10b, 8-N-Methyl-N-{[1-(8-bromoquinolin-4-yl)-1H-1,2,3-triazol-4-yl]methyl}quinolinesulfonamide]	≥ 0.3 µM	24.7 µM	0.3 µM	≤ 0.4 µM	206 to 207 °C	1.77 µM		0.3 µM	26.2 µM				have activity against normal cells
O=S(=O)(NCc1cn(Cc2ccc(F)cc2)nn1)c1cccc2cccnc12 [Compound 6a, 8-N-{[1-(4-Fluorobenzyl)-1H-1,2,3-triazol-4-yl]methyl}quinolinesulfonamide]	27.5 µM	> 500 µM		> 500 µM	118 to 119 °C	> 500 µM			> 500 µM				

Further molecules by falling IC50 ([1]; Homo sapiens, Caco-2, 72 h), results first:

IC50 ([1]; Homo sapiens, Caco-2, 72 h)	IC50 ([2]; Homo sapiens, SK-OV-3, 72 h)	IC50 ([4]; 72 h)	IC50 ([4]; Homo sapiens, SNB-19, 72 h)	melting point	IC50 ([5]; Homo sapiens, A549, 72 h)	IC50 A-549 ([5]; 72 h)	IC50 ([1]; 72 h)	Compound	IC50 ([3]; Homo sapiens, NHDF)	IC50 ([2]; 72 h)	IC50 [3]	IC50 ([5]; 72 h)	IC50 NHDF [3]
2.47 µM	> 500 µM		0.41 µM	103 to 105 °C	> 500 µM			CN(Cc1cn(Cc2ccc([N+](=O)[O-])cc2)nn1)S(=O)(=O)c1cccc2cccnc12 [Compound 7b, 8-N-Methyl-N-{[1-(4-nitrobenzyl)-1H-1,2,3-triazol-4-yl]methyl}quinolinesulfonamide]	> 500 µM				
2.21 µM	> 500 µM		> 500 µM	110 to 111 °C	> 500 µM			N#Cc1ccc(Cn2cc(CNS(=O)(=O)c3cccc4cccnc34)nn2)cc1 [Compound 5a, 8-N-{[1-(4-Cyanobenzyl)-1H-1,2,3-triazol-4-yl]methyl}quinolinesulfonamide]	> 500 µM				
0.4 µM	66.2 µM		1.18 µM	103 to 105 °C	7.72 µM			CN(Cc1cn(Cc2ccccc2)nn1)S(=O)(=O)c1cccc2cccnc12 [Compound 4b, 8-N-Methyl-N-[(1-benzyl-1H-1,2,3-triazol-4-yl)methyl]quinolinesulfonamide]	191 µM				
0.34 µM	> 500 µM	0.35 µM	≤ 0.4 µM	118 to 119 °C	> 500 µM			CN(Cc1cn(CSc2ccccc2)nn1)S(=O)(=O)c1cccc2cccnc12 [Compound 8b, 8-N-Methyl-N-[(1-methylthiophenyl-1H-1,2,3-triazol-4-yl)methyl]quinolinesulfonamide]	> 500 µM				
0.26 µM	4.16 µM	0.38 µM	≤ 0.4 µM	189 to 190 °C	0.4 µM	nanomolar concentration range		CN(Cc1cn(-c2ccnc3cc(Cl)ccc23)nn1)S(=O)(=O)c1cccc2cccnc12 [Compound 9b, 8-N-Methyl-N-{[1-(7-chloroquinolin-4-yl)-1H-1,2,3-triazol-4-yl]methyl}quinolinesulfonamide]	> 500 µM				lack of cytotoxicity; also recorded: no activity towards NHDF
